Measured values from US20260053861A1, “CELL COMPOSITIONS AND METHODS OF USING THE SAME” (THE REGENTS OF THE UNIVERSITY OF CALIFORNIA, priority 2022, published 2026).
Counter-ions that a name gives are not always drawn.

test system: hPSC-SCs; details: not given

First: CCNC1(c2cccs2)CCCCC1=O.Cl (stereo not drawn) [Tiletamine hydrochloride]
Second: C[C@H]1CC[C@]2(NC1)O[C@H]1C[C@H]3[C@@H]4CC[C@H]5C[C@@H](O)CC[C@]5(C)[C@H]4CC[C@]3(C)[C@H]1[C@@H]2C [Tomatidine]
The z.score.t of the first is higher: 1.958 for the first, −0.2904 for the second.

Compared with C[C@H]1CC[C@]2(NC1)O[C@H]1C[C@H]3[C@@H]4CC[C@H]5C[C@@H](O[C@@H]6O[C@H](CO)[C@H](O[C@@H]7O[C@H](CO)[C@@H](O)[C@H](O[C@@H]8OC[C@@H](O)[C@H](O)[C@H]8O)[C@H]7O[C@@H]7O[C@H](CO)[C@@H](O)[C@H](O)[C@H]7O)[C@H](O)[C@H]6O)CC[C@]5(C)[C@H]4CC[C@]3(C)[C@H]1[C@@H]2C [Tomatine], C(#CCN1CCCC1)CN1CCCC1.Cl.Cl [Tremorine dihydrochloride] is higher in z.score.t: −1.873 for the first, −0.4139 for the second.

Compared with COP(=O)(OC)C(O)C(Cl)(Cl)Cl (stereo not drawn) [Trichlorfon], COc1cc2c(c(OC)c1OC)-c1ccc(O)c(=O)cc1C(N)CC2 (stereo not drawn) [Trimethylcolchicinic acid] is lower in z.score.t: −0.04944 for the first, −0.07901 for the second.

Going from CN1[C@@H]2CC[C@H]1C[C@@H](O)C2 [Tropine] to COc1cc2c3cc1Oc1cc(ccc1O)C[C@@H]1c4c(cc(OC)c(O)c4Oc4ccc(cc4)C[C@@H]3N(C)CC2)CC[N+]1(C)C.Cl.O.O.O.O.O.[Cl-] [Tubocurarine chloride pentahydrate (+)], the z.score.t falls from −0.6133 to −1.166.

First: Cc1cccc(C)c1N=C1NCCCS1 [Xylazine]
Second: O.O=C(O)[C@@H]1[C@H]2C[C@H]3c4[nH]c5ccccc5c4CCN3C[C@@H]2CC[C@@H]1O [Yohimbinic acid monohydrate]
The z.score.t of the first is higher: 1.75 for the first, −0.2065 for the second.

Compared with CC1=C2[C@H]3OC(=O)[C@@H](C)[C@@H]3CC[C@@]2(C)C=CC1=O [alpha-Santonin], CC[N+]1(C)[C@@H]2CC[C@H]1CC(OC(=O)[C@@H]1CC[C@@](C(=O)OC3C[C@H]4CC[C@@H](C3)[N+]4(C)CC)(c3ccccc3)c3ccccc31)C2.[Cl-].[Cl-] (stereo partly drawn) [beta-Belladonnine dichloroethylate] is higher in z.score.t: −1.108 for the first, 1.872 for the second.

Compared with (−)-MK 801 hydrogen maleate, (−)-Quinpirole hydrochloride is higher in z.score.t: 1.657 for the first, 1.683 for the second.

Going from Antimycin A to Avermectin B1, the z.score.t rises from −1.787 to 0.7158.

same assay, conditions: HTS viability of hPSC-SCs in the presence of 30 mM glucose; Prestwick library; Table S4

First: CC(C(=O)O)c1ccc(C(=O)c2ccccc2)s1 (stereo not drawn) [Tiaprofenic acid]
Second: CC1(C)S[C@@H]2[C@H](NC(=O)[C@H](C(=O)O)c3ccsc3)C(=O)N2[C@H]1C(=O)O [Ticarcillin sodium]
The z.score.t of the first is higher: 0.04918 for the first, −0.6389 for the second.

Compared with Clc1ccccc1CN1CCc2sccc2C1 [Ticlopidine hydrochloride], CCS(=O)(=O)CCn1c([N+](=O)[O-])cnc1C [Tinidazole] is higher in z.score.t: 0.7034 for the first, 1.624 for the second.

First: NC[C@H]1O[C@H](O[C@H]2[C@H](O)[C@@H](O[C@H]3O[C@H](CO)[C@@H](O)[C@H](N)[C@H]3O)[C@H](N)C[C@@H]2N)[C@H](N)C[C@@H]1O [Tobramycin]
Second: Cc1cccc(C)c1NC(=O)C(C)N (stereo not drawn) [Tocainide hydrochloride]
The z.score.t of the first is lower: −0.3936 for the first, 0.8938 for the second.

Compared with Cc1c(C)c2c(c(C)c1O)CC[C@@](C)(CCC[C@H](C)CCC[C@H](C)CCCC(C)C)O2 [Tocopherol (R,S)], CCOC(=O)NNc1nncc2ccccc12 [Todralazine hydrochloride] is higher in z.score.t: −0.7233 for the first, −0.4444 for the second.

First: Cc1ccc(S(=O)(=O)NC(=O)NN2CCCCCC2)cc1 [Tolazamide]
Second: c1ccc(CC2=NCCN2)cc1 [Tolazoline hydrochloride]
The z.score.t of the first is lower: 0.1767 for the first, 1.268 for the second.

First: Cc1c(Cl)cccc1Nc1ccccc1C(=O)O [Tolfenamic acid]
Second: Cc1ccc(C(=O)c2ccc(CC(=O)O)n2C)cc1 [Tolmetin sodium salt dihydrate]
The z.score.t of the first is lower: −0.528 for the first, −0.05622 for the second.

Compared with Cc1cccc(N(C)C(=S)Oc2ccc3ccccc3c2)c1 [Tolnaftate], Cc1cccc(Nc2ccncc2S(=O)(=O)NC(=O)NC(C)C)c1 [Torsemide] is lower in z.score.t: 0.378 for the first, 0.2395 for the second.

First: CCCCNc1c(C(=O)OCC)c(C)nc2c1cnn2CC [Tracazolate hydrochloride]
Second: NC[C@H]1CC[C@H](C(=O)O)CC1 [Tranexamic acid]
The z.score.t of the first is lower: −0.9487 for the first, 1.088 for the second.

Going from N[C@@H]1C[C@H]1c1ccccc1 [Tranylcypromine hydrochloride] to O=c1n(CCCN2CCN(c3cccc(Cl)c3)CC2)nc2ccccn12 [Trazodone hydrochloride], the z.score.t rises from 0.08508 to 0.4346.

Going from C[C@]12C=CC(=O)C=C1CC[C@H]1[C@@H]3C[C@@H](O)[C@](O)(C(=O)CO)[C@@]3(C)C[C@H](O)[C@@]12F [Triamcinolone] to Nc1nc(N)c2nc(-c3ccccc3)c(N)nc2n1 [Triamterene], the z.score.t falls from 2.024 to 0.4903.

Compared with CCOC1O[C@H]([C@@H](COCc2ccccc2)OCc2ccccc2)[C@H](OCc2ccccc2)[C@H]1O (stereo partly drawn) [Tribenoside], NS(=O)(=O)c1cc2c(cc1Cl)NC(C(Cl)Cl)NS2(=O)=O (stereo not drawn) [Trichlormethiazide] is higher in z.score.t: −1.558 for the first, −0.03362 for the second.

First: CC[N+](CC)(CC)CCC(O)(c1ccccc1)C1CCCCC1.[Cl-] (stereo not drawn) [Tridihexethyl chloride]
Second: CN1CCN(CCCN2c3ccccc3Sc3ccc(C(F)(F)F)cc32)CC1 [Trifluoperazine dihydrochloride]
The z.score.t of the first is higher: −1.558 for the first, −1.866 for the second.

Compared with CN(C)CCCN1c2ccccc2Sc2ccc(C(F)(F)F)cc21 [Triflupromazine hydrochloride], O=c1[nH]c(=O)n([C@H]2C[C@H](O)[C@@H](CO)O2)cc1C(F)(F)F [Trifluridine] is higher in z.score.t: −1.512 for the first, −0.7873 for the second.

First: CC(=O)Oc1cc(C(F)(F)F)ccc1C(=O)O [Triflusal]
Second: C[n+]1cccc(C(=O)[O-])c1 [Trigonelline]
The z.score.t of the first is higher: 1.139 for the first, 0.9213 for the second.

First: Cl.OC(CCN1CCCCC1)(c1ccccc1)C1CCCCC1 (stereo not drawn) [Trihexyphenidyl-D, L Hydrochloride]
Second: COc1ccc(CN2CCNCC2)c(OC)c1OC [Trimetazidine dihydrochloride]
The z.score.t of the first is lower: −1.107 for the first, 0.2189 for the second.

Going from CN1C(=O)OC(C)(C)C1=O [Trimethadione] to COc1cc(C(=O)NCc2ccc(OCCN(C)C)cc2)cc(OC)c1OC [Trimethobenzamide hydrochloride], the z.score.t falls from 1.08 to −0.2719.

Going from COc1cc(Cc2cnc(N)nc2N)cc(OC)c1OC [Trimethoprim] to Cc1cc2cc3c(C)cc(=O)oc3c(C)c2o1 [Trioxsalen], the z.score.t falls from 0.2479 to −0.1913.

Compared with Cc1ccc(/C(=C\CN2CCCC2)c2ccccn2)cc1 [Triprolidine hydrochloride], CO[C@H]1C[C@H](O[C@H]2[C@H](C)[C@@H](O[C@@H]3O[C@H](C)C[C@H](N(C)C)[C@H]3OC(C)=O)[C@@H](C)C[C@@]3(CO3)C(=O)[C@H](C)[C@@H](OC(C)=O)[C@@H](C)[C@@H](C)OC(=O)[C@@H]2C)O[C@@H](C)[C@@H]1OC(C)=O [Troleandomycin] is higher in z.score.t: 0.2479 for the first, 1.067 for the second.

First: Cc1c(C)c2c(c(C)c1O)CCC(C)(C(=O)O)O2 (stereo not drawn) [Trolox]
Second: CN1[C@@H]2CC[C@H]1C[C@@H](OC(=O)c1c[nH]c3ccccc13)C2 [Tropisetron HCl]
The z.score.t of the first is higher: 2.048 for the first, −0.7595 for the second.

First: CO[C@@H]1C=C2CCN(C)[C@@H]2C2c3cc4c(cc3C(=O)OC21)OCO4.O=[N+]([O-])O (stereo partly drawn) [Ungerine nitrate]
Second: COc1ccccc1N1CCN(CCCNc2cc(=O)n(C)c(=O)n2C)CC1 [Urapidil hydrochloride]
The z.score.t of the first is higher: 1.117 for the first, 0.4105 for the second.

Compared with C[C@H](CCC(=O)O)[C@H]1CC[C@H]2[C@@H]3[C@@H](O)C[C@@H]4C[C@H](O)CC[C@]4(C)[C@H]3CC[C@]12C [Urosiol], C[C@H]1[C@H](C)CC[C@]2(C(=O)O)CC[C@]3(C)C(=CC[C@@H]4[C@@]5(C)CC[C@H](O)C(C)(C)[C@@H]5CC[C@]43C)[C@H]12 [Ursolic acid] is lower in z.score.t: −0.6988 for the first, −0.765 for the second.

First: Nc1ncnc2c1ncn2[C@@H]1O[C@H](CO)[C@@H](O)[C@@H]1O [Vidarabine]
Second: C=CC(N)CCC(=O)O (stereo not drawn) [Vigabatrin]
The z.score.t of the first is higher: 0.1019 for the first, −0.8304 for the second.

First: CC[C@]12CCCN3CCc4c(n(c5ccccc45)[C@@](O)(C(=O)OC)C1)[C@@H]32 [Vincamine]
Second: CCOC(=O)C1=C[C@]2(CC)CCCN3CCc4c(n1c1ccccc41)[C@@H]32 [Vinpocetine]
The z.score.t of the first is lower: 0.08508 for the first, 0.6517 for the second.

Going from O=c1cc(-c2ccc(O)cc2)oc2c([C@@H]3O[C@H](CO)[C@@H](O)[C@H](O)[C@H]3O)c(O)cc(O)c12 [Vitexin] to O=C(NCCNCC(O)COc1ccc(O)cc1)N1CCOCC1 (stereo not drawn) [Xamoterol hemifumarate], the z.score.t rises from −0.05622 to 0.81.

First: Cc1cc(C(C)(C)C)cc(C)c1CC1=NCCN1 [Xylometazoline hydrochloride]
Second: COC(=O)[C@@H]1[C@H]2C[C@H]3c4[nH]c5ccccc5c4CCN3C[C@@H]2CC[C@@H]1O [Yohimbine hydrochloride]
The z.score.t of the first is lower: −0.827 for the first, 0.6763 for the second.

First: Nc1ccn([C@H]2CC[C@@H](CO)O2)c(=O)n1 [Zalcitabine]
Second: CCCOc1ccccc1-c1nc2nn[nH]c2c(=O)[nH]1 [Zaprinast]
The z.score.t of the first is lower: −0.9487 for the first, −0.4341 for the second.

Going from COc1cc(-c2ccc(=O)[nH]n2)ccc1OC(F)F [Zardaverine] to Cc1cn([C@H]2C[C@H](N=[N+]=[N-])[C@@H](CO)O2)c(=O)[nH]c1=O [Zidovudine, AZT], the z.score.t rises from −1.128 to −0.8478.

Compared with CN(C)C/C=C(/c1ccc(Br)cc1)c1cccnc1 [Zimelidine dihydrochloride monohydrate], Cc1cc(CC(=O)O)n(C)c1C(=O)c1ccc(Cl)cc1 [Zomepirac sodium salt] is lower in z.score.t: 0.4064 for the first, −0.9042 for the second.

Compared with OCCN1CCN(CC/C=C2/c3ccccc3Sc3ccc(Cl)cc32)CC1 [Zuclopenthixol hydrochloride], CCCCNC(=O)NS(=O)(=O)c1ccc(C)cc1 [tolbutamide, Tolbutamide, reference compound] is higher in z.score.t: −1.345 for the first, 2.089 for the second.

First: (S)-(−)-Atenolol
Second: (S)-propranolol hydrochloride
The z.score.t of the first is higher: 1.606 for the first, 0.6803 for the second.

Going from Alverine citrate salt to Beta-Escin, the z.score.t rises from −1.025 to −0.5583.
